How the values were obtained:
Assay type in all cases: in vivo
[1] = test system: Myzus persicae; assay: Green peach aphid (Myzus persicae), mixed life stages, systemic test via artificial diet under membrane; conditions: 72 h, read-out: mortality in comparison with untreated controls
Description: For evaluating control of Green Peach Aphid through systemic means the test unit consisted of 96-well-microtiter plates containing liquid artificial diet under an artificial membrane. The compounds were formulated using a solution containing 75% v/v water and 25% v/v DMSO. Different concentrations of formulated compounds were pipetted into the aphid diet, using a custom-built pipette, at two replications. After application, 5 - 8 adult aphids were placed on the artificial membrane inside the microtiter plate wells. The aphids were then allowed to suck on the treated aphid diet and incubated at about 23 ± 1°C and about 50 ± 5 % relative humidity for 3 days. Aphid mortality and fecundity was then visually assessed.

[2] = test system: Anthonomus grandis; assay: Boll weevil (Anthonomus grandis) control, 96-well microtiter plate insect diet with eggs; conditions: 120 h, read-out: mortality in comparison with untreated controls
Protocol: For evaluating control of boll weevil, the test unit consisted of 96-well-microtiter plates containing an insect diet and 5-10 A. grandis eggs.
The compounds were formulated using a solution containing 75% v/v water and 25% v/v DMSO. Different concentrations of formulated compounds were sprayed onto the insect diet at 5µl, using a custom-built micro atomizer, at two replications.
After application, microtiter plates were incubated at about 25 ± 1°C and about 75 ± 5 % relative humidity for 5 days. Egg and larval mortality were then visually assessed.

[3] = test system: Aedes aegypti; assay: whole plant or invertebrate; conditions: 48 h, larval mortality, 2 days, read-out: mortality in comparison with untreated controls
Protocol: For evaluating control of Yellow Fever Mosquito, the test unit consisted of 96-well-microtiter plates containing 200µl of tap water per well and 5-15 freshly hatched A. aegypti larvae. The active compounds were formulated using a solution containing 75% (v/v) water and 25% (v/v) DMSO. Different concentrations of formulated compounds or mixtures were sprayed onto the insect diet at 2.5µl, using a custom-built micro atomizer, at two replications.
After application, microtiter plates were incubated at 28 ± 1°C, 80 ± 5 % RH for 2 days. Larval mortality was then visually assessed.

[4] = test system: Plutella xylostella; assay: Diamond back moth (Plutella xylostella) control, 96-well microtiter plate insect diet with eggs; conditions: 120 h, read-out: mortality in comparison with untreated controls
Protocol: For evaluating control of […] (Plutella xylostella) the test unit consisted of 96-well-microtiter plates containing an insect diet and 15-25 P. xylostella eggs.
The compounds or mixtures were formulated using a solution containing 75% water and 25% DMSO. Different concentrations of formulated compounds or mixtures were sprayed onto the insect diet at 5µl, using a custom-built micro atomizer, at two replications.
After application, microtiter plates were incubated at 28 ± 1°C, 80 ± 5 % RH for 5 days. Egg and larval mortality was then visually assessed.

SMILES	mortality at 800 ppm [1] [%]	mortality at 800 ppm [2] [%]	mortality at 800 ppm [3] [%]	mortality at 800 ppm [4] [%]
CS(=O)(=O)N1CC(C(=O)NCc2cc(NC3=NOC(c4ccc(F)c(Cl)c4)(C(F)(F)F)C3)ccc2Cl)C1 (stereo not drawn) [I-46]	≥ 75	≥ 75	≥ 75	≥ 75
O=C(CN1CCCC1=O)NCc1cc(NC2=NOC(c3ccc(F)c(Cl)c3)(C(F)(F)F)C2)ccc1Cl (stereo not drawn) [I-31]	≥ 75		≥ 75	
O=C(CNC(=O)C1CC1)NCc1cc(NC2=NOC(c3ccc(F)c(Cl)c3)(C(F)(F)F)C2)ccc1Cl (stereo not drawn) [I-26]	≥ 75	≥ 75	≥ 75	≥ 75
O=C(NCc1cc(NC2=NOC(c3cc(Cl)cc(Cl)c3)(C(F)(F)F)C2)ccc1F)c1ncon1 (stereo not drawn) [I-7]		≥ 75		
O=C(Cc1ccsc1)NCc1cc(NC2=NOC(c3ccc(F)c(Cl)c3)(C(F)(F)F)C2)ccc1Cl (stereo not drawn) [I-44]	≥ 75	≥ 75	≥ 75	≥ 75
O=C(Cn1cccn1)NCc1cc(NC2=NOC(c3ccc(F)c(Cl)c3)(C(F)(F)F)C2)ccc1Cl (stereo not drawn) [I-38]		≥ 75	≥ 75	≥ 75
O=C(NCc1cc(NC2=NOC(c3ccc(F)c(Cl)c3)(C(F)(F)F)C2)ccc1Cl)C1CC=CC1 (stereo not drawn) [I-29]	≥ 75	≥ 75	≥ 75	≥ 75
CS(=O)(=O)NCC(=O)NCc1cc(NC2=NOC(c3ccc(F)c(Cl)c3)(C(F)(F)F)C2)ccc1Cl (stereo not drawn) [I-47]	≥ 75	≥ 75	≥ 75	≥ 75
O=C(NCc1cc(NC2=NOC(c3cc(Cl)cc(Cl)c3)(C(F)(F)F)C2)ccc1F)c1ccccn1 (stereo not drawn) [I-11]		≥ 75		≥ 75
O=C(CC1CCS(=O)(=O)C1)NCc1cc(NC2=NOC(c3ccc(F)c(Cl)c3)(C(F)(F)F)C2)ccc1Cl (stereo not drawn) [I-49]	≥ 75	≥ 75	≥ 75	
COC(=O)N1CCCC1C(=O)NCc1cc(NC2=NOC(c3cc(Cl)cc(Cl)c3)(C(F)(F)F)C2)ccc1F (stereo not drawn) [I-10]		≥ 75		
O=C(Cn1cncn1)NCc1cc(NC2=NOC(c3ccc(F)c(Cl)c3)(C(F)(F)F)C2)ccc1Cl (stereo not drawn) [I-40]	≥ 75	≥ 75	≥ 75	≥ 75
N#Cc1ccc(C(=O)NCc2cc(NC3=NOC(c4ccc(F)c(Cl)c4)(C(F)(F)F)C3)ccc2Cl)s1 (stereo not drawn) [I-34]		≥ 75	≥ 75	≥ 75
O=C(CC1OCCO1)NCc1cc(NC2=NOC(c3ccc(F)c(Cl)c3)(C(F)(F)F)C2)ccc1Cl (stereo not drawn) [I-33]		≥ 75	≥ 75	≥ 75
COCC(=O)NCc1cc(NC2=NOC(c3cc(Cl)cc(Cl)c3)(C(F)(F)F)C2)ccc1F (stereo not drawn) [I-9]	≥ 75	≥ 75		
Cn1ncc(C#N)c1C(=O)NCc1cc(NC2=NOC(c3ccc(F)c(Cl)c3)(C(F)(F)F)C2)ccc1Cl (stereo not drawn) [I-37]			≥ 75	≥ 75
O=C(Cc1ccccc1)NCc1cc(NC2=NOC(c3ccc(F)c(Cl)c3)(C(F)(F)F)C2)ccc1Cl (stereo not drawn) [I-27]			≥ 75	
N#CCC(=O)NCc1cc(NC2=NOC(c3ccc(F)c(Cl)c3)(C(F)(F)F)C2)ccc1Cl (stereo not drawn) [I-51]	≥ 75	≥ 75	≥ 75	≥ 75

Source: EP4342885A1, “N-(3-(AMINOMETHYL)-PHENYL)-5-(4-PHENYL)-5-(TRIFLUOROMETHYL)-4,5-DIHYDROISOXAZOL-3-AMINE DERIVATIVES AND SIMILAR COMPOUNDS AS PESTICIDES” (priority 2022, dated 2024)
